Measurements from publication PMC12587545, “Noncytotoxic polymyxin derivatives enhance antibiotic action against multidrug-resistant Gram-negative bacteria” (Antimicrobial Agents and Chemotherapy, 2025).
Values joined by “and” are separate entries in the source; they are usually repeats but may differ in a detail not shown here. Identical values can stand only once.

Assays:
P. aeruginosa = experiment: Checkerboard assay (antibiotic potentiation); type: cell-based, Pseudomonas aeruginosa; conditions: for MICantibiotic: antibiotic alone
K. pneumoniae = experiment: Checkerboard assay (antibiotic potentiation); type: cell-based, Klebsiella pneumoniae; conditions: for MICantibiotic + compound: antibiotic MIC with 8 µg/mL (5 µM) compound 1; for MICantibiotic: antibiotic alone
Description: (§1) The interaction between the compounds and the antibiotics was evaluated using the fractional inhibitory concentration (FIC) index. FIC indices of ≤0.5 is synergistic, 0.5 < × ≤ 4 is additive, whereas >4 is antagonistic ([34]).
(§2) Synergy was measured by the FIC index, which is the summation of the individual FICs of the antibiotic and the compound. The FIC is calculated by dividing the MIC of one agent in the presence of another by the MIC of the agent alone. […] The FBS studies were conducted by following a previously published protocol ([29], [50]). The FBS was inactivated by heating at 56°C for 30 min with constant swirling.

A. baumannii = experiment: Checkerboard assay (antibiotic potentiation); type: cell-based, Acinetobacter baumannii; design: key to FIC index: sum of FICs; ≤0.5 synergistic, 0.5–4 additive, >4 antagonistic; conditions: for MICantibiotic: antibiotic alone
E. cloacae = experiment: Checkerboard assay (antibiotic potentiation); type: cell-based, Enterobacter cloacae; conditions: E. cloacae 121887 (colistin-resistant)
Description: The interaction between the compounds and the antibiotics was evaluated using the fractional inhibitory concentration (FIC) index. FIC indices of ≤0.5 is synergistic, 0.5 < × ≤ 4 is additive, whereas >4 is antagonistic ([34]). […] .
The bacterial isolates were acquired from ATCC or the Canadian Ward Surveillance (CANWARD) study ([56]). CANWARD isolates were collected from infected patients admitted to participating medical centers across Canada.
(§3) The antibiotic and compounds were serially diluted 2-fold in CAMHB along the x- and y-axis, respectively, on a 96-well plate that was subsequently incubated with equal volumes of bacterial inoculum overnight at 37°C. Wells containing only media were used as negative controls, and wells containing only bacteria were used as positive controls. Synergy was measured by the FIC index, which is the summation of the individual FICs of the antibiotic and the compound. The FIC is calculated by dividing the MIC of one agent in the presence of another by the MIC of the agent alone. Turbidity was confirmed with a Molecular Devices (United States) EMax Plus microplate reader at a wavelength of 590 nm. The FBS studies were conducted by following a previously published protocol ([29], [50]). The FBS was inactivated by heating at 56°C for 30 min with constant swirling.

[1] = test system: MDR Gram-negative bacteria clinical isolates; experiment: Checkerboard assay, summary over strains; type: cell-based; conditions: of all 14 clinical isolates; number (%)
Description: as §1, §3

E. coli = experiment: Checkerboard assay (antibiotic potentiation); type: cell-based, Escherichia coli; conditions: for Interpretation: antibiotic + compound 1; for MICantibiotic + compound: antibiotic MIC with 8 µg/mL (5 µM) compound 1; for MICantibiotic: antibiotic alone; for Potentiation: of antibiotic by 8 µg/mL (5 µM) compound 1
Description: as §1, §2

[2] = P. aeruginosa 262-101856, antibiotic + compound 1
[3] = P. aeruginosa 264-105354, antibiotic + compound 1
[4] = P. aeruginosa 114228 (colistin-resistant), antibiotic + compound 1
[5] = K. pneumoniae 113250 (colistin-resistant)
[6] = A. baumannii 110193, antibiotic + compound 1
[7] = A. baumannii ATCC 17978, antibiotic + compound 1
[8] = E. coli 94393 (colistin-resistant)
[9] = E. coli 94474 (colistin-resistant)

MICantibiotic + compound (P. aeruginosa; P. aeruginosa 259-96916, antibiotic MIC with 8 µg/mL (5 µM) compound 1): 0.5 µg/mL | MICantibiotic (P. aeruginosa; P. aeruginosa 259-96916): 64 µg/mL | MICantibiotic + compound (P. aeruginosa; P. aeruginosa 262-101856, antibiotic MIC with 8 µg/mL (5 µM) compound 1): 2 µg/mL | MICantibiotic (P. aeruginosa; P. aeruginosa 262-101856): >128 µg/mL | MICantibiotic + compound (P. aeruginosa; P. aeruginosa 264-105354, antibiotic MIC with 8 µg/mL (5 µM) compound 1): 0.5 µg/mL | MICantibiotic (P. aeruginosa; P. aeruginosa 264-105354): >64 µg/mL | MICantibiotic + compound (P. aeruginosa; P. aeruginosa 101243 (colistin-resistant), antibiotic MIC with 8 µg/mL (5 µM) compound 1): 4 µg/mL | MICantibiotic (P. aeruginosa; P. aeruginosa 101243 (colistin-resistant)): 16 µg/mL | MICantibiotic + compound (P. aeruginosa; P. aeruginosa 114228 (colistin-resistant), antibiotic MIC with 8 µg/mL (5 µM) compound 1): 16 µg/mL | MICantibiotic (P. aeruginosa; P. aeruginosa 114228 (colistin-resistant)): >64 µg/mL | MICantibiotic + compound (P. aeruginosa; P. aeruginosa PAO1, antibiotic MIC with 8 µg/mL (5 µM) compound 1): 0.5 µg/mL | MICantibiotic + compound (P. aeruginosa; P. aeruginosa PAO1, antibiotic MIC with 8 µg/mL (5 µM) compound 3): 64 µg/mL | MICantibiotic (P. aeruginosa; P. aeruginosa PAO1): 64 µg/mL and 32 µg/mL | MICantibiotic + compound (K. pneumoniae; [5]): >4 µg/mL | MICantibiotic (K. pneumoniae; [5]): >4 µg/mL | MICantibiotic + compound (K. pneumoniae; K. pneumoniae 116381): 4 µg/mL | MICantibiotic (K. pneumoniae; K. pneumoniae 116381): 128 µg/mL | MICantibiotic + compound (A. baumannii; A. baumannii 92247 (colistin-resistant), antibiotic MIC with 4 µg/mL (2 µM) compound 1): 0.25 µg/mL | MICantibiotic (A. baumannii; A. baumannii 92247 (colistin-resistant)): 0.25 µg/mL | MICantibiotic + compound (A. baumannii; A. baumannii 110193, antibiotic MIC with 4 µg/mL (2 µM) compound 1): 2 µg/mL | MICantibiotic (A. baumannii; A. baumannii 110193): 2 µg/mL | MICantibiotic + compound (A. baumannii; A. baumannii AB027, antibiotic MIC with 4 µg/mL (2 µM) compound 1): 1 µg/mL | MICantibiotic (A. baumannii; A. baumannii AB027): 2 µg/mL | MICantibiotic + compound (A. baumannii; A. baumannii AB031, antibiotic MIC with 4 µg/mL (2 µM) compound 1): 1 µg/mL | MICantibiotic (A. baumannii; A. baumannii AB031): 2 µg/mL | MICantibiotic + compound (A. baumannii; A. baumannii ATCC 17978, antibiotic MIC with 8 µg/mL (5 µM) compound 3): 0.125 µg/mL | MICantibiotic + compound (A. baumannii; A. baumannii ATCC 17978, antibiotic MIC with ¼ MIC (≤5 µM) of compound 1): 0.004 µg/mL | MICantibiotic + compound (E. cloacae; antibiotic MIC with 8 µg/mL (5 µM) compound 1): 0.5 µg/mL | MICantibiotic (E. cloacae; antibiotic alone): 0.5 µg/mL | MICantibiotic + compound (E. coli; [8]): 0.125 µg/mL | MICantibiotic (E. coli; [8]): 0.5 µg/mL | MICantibiotic + compound (E. coli; [9]): 8 µg/mL | MICantibiotic (E. coli; [9]): 64 µg/mL
Structure (SMILES): CN(C)c1ccc(O)c2c1C[C@H]1C[C@H]3[C@H](N(C)C)C(O)=C(C(N)=O)C(=O)[C@@]3(O)C(O)=C1C2=O [Minocycline]
Interpretation (P. aeruginosa; P. aeruginosa 259-96916, antibiotic + compound 1): Synergy (FIC indices of ≤0.5 is synergistic) | Potentiation (P. aeruginosa; P. aeruginosa 259-96916, of antibiotic by 8 µg/mL (5 µM) compound 1): 128 fold | FIC index (P. aeruginosa; [2]): x < 0.078 | Interpretation (P. aeruginosa; [2]): Synergy (FIC indices of ≤0.5 is synergistic) | Potentiation (P. aeruginosa; P. aeruginosa 262-101856, of antibiotic by 8 µg/mL (5 µM) compound 1): ≥128-fold | FIC index (P. aeruginosa; [3]): x < 0.070 | Interpretation (P. aeruginosa; [3]): Synergy (FIC indices of ≤0.5 is synergistic) | Potentiation (P. aeruginosa; P. aeruginosa 264-105354, of antibiotic by 8 µg/mL (5 µM) compound 1): ≥256-fold | Interpretation (P. aeruginosa; P. aeruginosa 101243 (colistin-resistant), antibiotic + compound 1): Synergy (FIC indices of ≤0.5 is synergistic) | Potentiation (P. aeruginosa; P. aeruginosa 101243 (colistin-resistant), of antibiotic by 8 µg/mL (5 µM) compound 1): 4 fold | FIC index (P. aeruginosa; [4]): x < 0.313 | Interpretation (P. aeruginosa; [4]): Synergy (FIC indices of ≤0.5 is synergistic) | Potentiation (P. aeruginosa; P. aeruginosa 114228 (colistin-resistant), of antibiotic by 8 µg/mL (5 µM) compound 1): ≥8-fold | Interpretation (P. aeruginosa; P. aeruginosa PAO1, antibiotic + compound 1): Synergy (FIC indices of ≤0.5 is synergistic) | Interpretation (P. aeruginosa; P. aeruginosa PAO1, antibiotic + compound 3): Additive (0.5 < × ≤ 4 is additive) | Potentiation (P. aeruginosa; P. aeruginosa PAO1, of antibiotic by 8 µg/mL (5 µM) compound 1): 64 fold | Potentiation (P. aeruginosa; P. aeruginosa PAO1, of antibiotic by 8 µg/mL (5 µM) compound 3): 1 fold | Interpretation (K. pneumoniae; K. pneumoniae 116381, antibiotic + compound 1): Synergy (FIC indices of ≤0.5 is synergistic) | Potentiation (K. pneumoniae; K. pneumoniae 116381, of antibiotic by 8 µg/mL (5 µM) compound 1): 32 fold | Interpretation (A. baumannii; A. baumannii 92247 (colistin-resistant), antibiotic + compound 1): Additive (0.5 < × ≤ 4 is additive) | Potentiation (A. baumannii; A. baumannii 92247 (colistin-resistant), of antibiotic by 4 µg/mL (2 µM) compound 1): 1 fold | FIC index (A. baumannii; [6]): 0.75 | Interpretation (A. baumannii; [6]): Additive (0.5 < × ≤ 4 is additive) | Potentiation (A. baumannii; A. baumannii 110193, of antibiotic by 4 µg/mL (2 µM) compound 1): 1 fold | Interpretation (A. baumannii; A. baumannii AB027, antibiotic + compound 1): Additive (0.5 < × ≤ 4 is additive) | Potentiation (A. baumannii; A. baumannii AB027, of antibiotic by 4 µg/mL (2 µM) compound 1): 2 fold | Interpretation (A. baumannii; A. baumannii AB031, antibiotic + compound 1): Additive (0.5 < × ≤ 4 is additive) | Potentiation (A. baumannii; A. baumannii AB031, of antibiotic by 4 µg/mL (2 µM) compound 1): 2 fold | FIC index (A. baumannii; [7]): 0.254 | Interpretation (A. baumannii; [7]): Synergy (FIC indices of ≤0.5 is synergistic) | Interpretation (A. baumannii; A. baumannii ATCC 17978, antibiotic + compound 3): Additive (0.5 < × ≤ 4 is additive) | Potentiation (A. baumannii; A. baumannii ATCC 17978, of antibiotic by 8 µg/mL (5 µM) compound 3): 1 fold | Potentiation (A. baumannii; A. baumannii ATCC 17978, of antibiotic by ¼ MIC (≤5 µM) of compound 1): 256 fold | Interpretation (E. cloacae; antibiotic + compound 1): Additive (0.5 < × ≤ 4 is additive) | Potentiation (E. cloacae; of antibiotic by 8 µg/mL (5 µM) compound 1): 1 fold | clinical isolates in which the antibiotic was synergized by compound 1 [1]: 8 (57%) strains | Interpretation (E. coli; [8]): Synergy (FIC indices of ≤0.5 is synergistic) | Potentiation (E. coli; [8]): 4 fold | Interpretation (E. coli; [9]): Synergy (FIC indices of ≤0.5 is synergistic) | Potentiation (E. coli; [9]): 8 fold
